These results are taken from article PMC10191434 (2023).

Structures are written as SMILES.

A word on the Kd: it is the concentration at which binding is half-saturated. Higher therefore signals lower affinity.

This assay concerns modified procaine-binding aptamer (new sequence) (DNA, aptamer) AGACAAGGAAAATCCTTCAACGAAGTGGGTCG
Briefly: square-wave voltammetry, EAB sensor titration. The note with it: undiluted bovine CSF, 37 °C, immobilised aptamer; for binding: highest concentration not given.

As to `CCN(CC)CCOC(=O)c1ccc(N)cc1`, under “Langmuir-Hill fit, ± is 95% confidence”, the Kd was determined as 960 ± 30 µM.
Take `Nc1ccc(C(=O)O)cc1`: the binding entry is “no”.
Turning to `CCN(CC)CCO`, the binding result is on record as “no”.
